# According to patent publication US20020137929A1, “1 - (3-heterocyclylphenyl) isothiourea, -isourea, -guanidine and -amidine herbicidal agents” (Intellectual Property Department, BASF Aktiengesellschaft, priority 1998, published 2002):
# What was measured:
# ABUTH (Velvetleaf) [1] = experiment: Postemergence herbicidal evaluation; format: in vivo, Abutilon theophrasti
# How it was run: (§1)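 Scores (0–9) reflect plant stand, vigor, malformation, size, chlorosis and general appearance relative to control, read 4 to 5 weeks after treatment and averaged where tests were repeated. Application: about 0.0156–0.500 kg/ha sprayed at 40 psi onto two-week seedlings.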
# [2] = tested on: CHEAL (Lambsquarters, Common); experiment: Postemergence herbicidal evaluation; format: in vivo, Chenopodium album
# How it was run: as §1
# [3] = tested on: IPOHE (Morningglory, Ivyleaf); experiment: Postemergence herbicidal evaluation; format: in vivo, Ipomoea hederacea
# How it was run: as §1
# ECHCG (Barnyardgrass) [4] = experiment: Postemergence herbicidal evaluation; format: in vivo, Echinochloa crus-galli
# How it was run: as §1
# SETVI (Foxtail, Green) = experiment: Postemergence herbicidal evaluation; format: in vivo, Setaria viridis
# How it was run: as §1
# ORYSAT (Rice, Tebonnet) = experiment: Postemergence herbicidal evaluation; format: in vivo, Oryza sativa, (L.) Tebonnet
# How it was run: as §1
# ZEAMX (Corn, Field) [5] = experiment: Postemergence herbicidal evaluation; format: in vivo, Zea mays
# How it was run: as §1
# ABUTH (Velvetleaf) [6] = experiment: Preemergence herbicidal evaluation; format: in vivo, Abutilon theophrasti; conditions: rated 4-5 weeks after treatment
# How it was run: (§2)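 Steps: mix seeds into potting soil; plant atop ~1 inch soil; spray compound in aqueous acetone (~0.0156-0.500 kg/ha equivalent); maintain in greenhouse with watering; rate visually 0-9 versus control at 4-5 weeks.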
# CASOB (Sicklepod) = experiment: Preemergence herbicidal evaluation; format: in vivo, Cassia obtusifolia; conditions: rated 4-5 weeks after treatment
# How it was run: as §2
# [7] = tested on: CHEAL (Lambsquarters, Common); experiment: Preemergence herbicidal evaluation; format: in vivo, Chenopodium album; conditions: rated 4-5 weeks after treatment
# How it was run: as §2
# [8] = tested on: IPOHE (Morningglory, Ivyleaf); experiment: Preemergence herbicidal evaluation; format: in vivo, Ipomoea hederacea; conditions: rated 4-5 weeks after treatment
# How it was run: as §2
# ECHCG (Barnyardgrass) [9] = experiment: Preemergence herbicidal evaluation; format: in vivo, Echinochloa crus-galli; conditions: rated 4-5 weeks after treatment
# How it was run: as §2
# [10] = tested on: GLXMAW (Soybean, Williams); experiment: Preemergence herbicidal evaluation; format: in vivo, Glycine max, (L.) Merr. cv Williams; conditions: rated 4-5 weeks after treatment
# How it was run: as §2
# [11] = tested on: TRZAWR (Wheat, Winter, cv Riband); experiment: Preemergence herbicidal evaluation; format: in vivo, Triticum aestivum; conditions: rated 4-5 weeks after treatment
# How it was run: as §2
# ZEAMX (Corn, Field) [12] = experiment: Preemergence herbicidal evaluation; format: in vivo, Zea mays; conditions: rated 4-5 weeks after treatment
# How it was run: as §2
# CYPIR (Rice Flatsedge) = experiment: Postemergence weed control under flooded paddy conditions; format: in vivo, Cyperus iria; conditions: postemergence weeds, 3-4 weeks after treatment
# How it was run: (§3)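 Injury ratings (0–9 scale covering stand, vigor, malformation, size, chlorosis and overall appearance versus control) were made three to four weeks after treatment. Test material, about 0.0313 to 0.500 kg/ha a.i. in 50/50 v/v aqueous/acetone, was added to flood water 1.5 to 3 cm deep over 3 to 5 cm weeds and 1.5 to 2.5 leaf rice.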
# CYPSE (Flatsedge) = experiment: as above; format: in vivo, Cyperus serotinus; conditions: postemergence weeds, 3-4 weeks after treatment
# How it was run: as §3
smiles,measurement,setting,value
"CCOC(=O)CN1C(=O)CSC1=Nc1cc(N2C(=O)C3=C(CCCC3)C2=O)c(F)cc1Cl [Compound 47, Ethyl 2-{[2-chloro-5-(1-cyclohexene-1,2-dicarboximido)-4-fluorophenyl]imino}-4-oxo-3-thiazolidineacetate]",Postemergence herbicidal rating ABUTH,ABUTH (Velvetleaf) [1]; Rate 0.0156 kg/ha,9.0
same,Postemergence herbicidal rating ABUTH,ABUTH (Velvetleaf) [1]; Rate 0.0313 kg/ha,9.0
same,Postemergence herbicidal rating ABUTH,ABUTH (Velvetleaf) [1]; Rate 0.0625 kg/ha,9.0
same,Postemergence herbicidal rating CHEAL,[2]; Rate 0.0156 kg/ha,3.0
same,Postemergence herbicidal rating CHEAL,[2]; Rate 0.0313 kg/ha,4.0
same,Postemergence herbicidal rating IPOHE,[3]; Rate 0.0156 kg/ha,9.0
same,Postemergence herbicidal rating IPOHE,[3]; Rate 0.0313 kg/ha,9.0
same,Postemergence herbicidal rating IPOHE,[3]; Rate 0.0625 kg/ha,9.0
same,Postemergence herbicidal rating ECHCG,ECHCG (Barnyardgrass) [4]; Rate 0.0156 kg/ha,0.0
same,Postemergence herbicidal rating ECHCG,ECHCG (Barnyardgrass) [4]; Rate 0.0313 kg/ha,0.0
same,Postemergence herbicidal rating ECHCG,ECHCG (Barnyardgrass) [4]; Rate 0.0625 kg/ha,0.0
same,Postemergence herbicidal rating SETVI,"SETVI (Foxtail, Green); Rate 0.0156 kg/ha",0.0
same,Postemergence herbicidal rating SETVI,"SETVI (Foxtail, Green); Rate 0.0313 kg/ha",0.0
same,Postemergence herbicidal rating SETVI,"SETVI (Foxtail, Green); Rate 0.0625 kg/ha",0.0
same,Postemergence herbicidal rating ORYSAT,"ORYSAT (Rice, Tebonnet); Rate 0.0156 kg/ha",0.5
same,Postemergence herbicidal rating ORYSAT,"ORYSAT (Rice, Tebonnet); Rate 0.0313 kg/ha",1.5
same,Postemergence herbicidal rating ORYSAT,"ORYSAT (Rice, Tebonnet); Rate 0.0625 kg/ha",3.0
same,Postemergence herbicidal rating ZEAMX,"ZEAMX (Corn, Field) [5]; Rate 0.0156 kg/ha",5.0
same,Postemergence herbicidal rating ZEAMX,"ZEAMX (Corn, Field) [5]; Rate 0.0313 kg/ha",7.0
same,Postemergence herbicidal rating ZEAMX,"ZEAMX (Corn, Field) [5]; Rate 0.0625 kg/ha",7.5
same,Preemergence herbicidal rating ABUTH,ABUTH (Velvetleaf) [6]; rate 0.0156 kg/ha,4.0
same,Preemergence herbicidal rating ABUTH,ABUTH (Velvetleaf) [6]; rate 0.0313 kg/ha,4.0
same,Preemergence herbicidal rating ABUTH,ABUTH (Velvetleaf) [6]; rate 0.0625 kg/ha,9.0
same,Preemergence herbicidal rating ABUTH,ABUTH (Velvetleaf) [6]; rate 0.1250 kg/ha,9.0
same,Preemergence herbicidal rating ABUTH,ABUTH (Velvetleaf) [6]; rate 0.2500 kg/ha,9.0
same,Preemergence herbicidal rating CASOB,CASOB (Sicklepod); rate 0.0156 kg/ha,0.0
same,Preemergence herbicidal rating CASOB,CASOB (Sicklepod); rate 0.0313 kg/ha,0.0
same,Preemergence herbicidal rating CASOB,CASOB (Sicklepod); rate 0.0625 kg/ha,0.0
same,Preemergence herbicidal rating CASOB,CASOB (Sicklepod); rate 0.1250 kg/ha,0.0
same,Preemergence herbicidal rating CASOB,CASOB (Sicklepod); rate 0.2500 kg/ha,0.0
same,Preemergence herbicidal rating CHEAL,[7]; rate 0.0156 kg/ha,9.0
same,Preemergence herbicidal rating CHEAL,[7]; rate 0.0313 kg/ha,9.0
same,Preemergence herbicidal rating CHEAL,[7]; rate 0.0625 kg/ha,9.0
same,Preemergence herbicidal rating CHEAL,[7]; rate 0.1250 kg/ha,9.0
same,Preemergence herbicidal rating CHEAL,[7]; rate 0.2500 kg/ha,9.0
same,Preemergence herbicidal rating IPOHE,[8]; rate 0.0156 kg/ha,0.0
same,Preemergence herbicidal rating IPOHE,[8]; rate 0.0313 kg/ha,0.0
same,Preemergence herbicidal rating IPOHE,[8]; rate 0.0625 kg/ha,0.0
same,Preemergence herbicidal rating IPOHE,[8]; rate 0.1250 kg/ha,0.0
same,Preemergence herbicidal rating IPOHE,[8]; rate 0.2500 kg/ha,9.0
same,Preemergence herbicidal rating ECHCG,ECHCG (Barnyardgrass) [9]; rate 0.0156 kg/ha,0.0
same,Preemergence herbicidal rating ECHCG,ECHCG (Barnyardgrass) [9]; rate 0.0313 kg/ha,0.0
same,Preemergence herbicidal rating ECHCG,ECHCG (Barnyardgrass) [9]; rate 0.0625 kg/ha,0.0
same,Preemergence herbicidal rating ECHCG,ECHCG (Barnyardgrass) [9]; rate 0.1250 kg/ha,0.0
same,Preemergence herbicidal rating ECHCG,ECHCG (Barnyardgrass) [9]; rate 0.2500 kg/ha,0.0
same,Preemergence herbicidal rating GLXMAW,[10]; rate 0.0156 kg/ha,0.0
same,Preemergence herbicidal rating GLXMAW,[10]; rate 0.0313 kg/ha,0.0
same,Preemergence herbicidal rating GLXMAW,[10]; rate 0.0625 kg/ha,0.0
same,Preemergence herbicidal rating GLXMAW,[10]; rate 0.1250 kg/ha,0.0
same,Preemergence herbicidal rating GLXMAW,[10]; rate 0.2500 kg/ha,0.0
same,Preemergence herbicidal rating TRZAWR,[11]; rate 0.0156 kg/ha,0.0
same,Preemergence herbicidal rating TRZAWR,[11]; rate 0.0313 kg/ha,0.0
same,Preemergence herbicidal rating TRZAWR,[11]; rate 0.0625 kg/ha,0.0
same,Preemergence herbicidal rating TRZAWR,[11]; rate 0.1250 kg/ha,0.0
same,Preemergence herbicidal rating TRZAWR,[11]; rate 0.2500 kg/ha,0.0
same,Preemergence herbicidal rating ZEAMX,"ZEAMX (Corn, Field) [12]; rate 0.0156 kg/ha",0.0
same,Preemergence herbicidal rating ZEAMX,"ZEAMX (Corn, Field) [12]; rate 0.0313 kg/ha",0.0
same,Preemergence herbicidal rating ZEAMX,"ZEAMX (Corn, Field) [12]; rate 0.0625 kg/ha",0.0
same,Preemergence herbicidal rating ZEAMX,"ZEAMX (Corn, Field) [12]; rate 0.1250 kg/ha",0.0
same,Preemergence herbicidal rating ZEAMX,"ZEAMX (Corn, Field) [12]; rate 0.2500 kg/ha",2.0
same,Herbicidal rating CYPIR,CYPIR (Rice Flatsedge); rate 0.0313 kg/ha,0.0
same,Herbicidal rating CYPIR,CYPIR (Rice Flatsedge); rate 0.0625 kg/ha,0.0
same,Herbicidal rating CYPIR,CYPIR (Rice Flatsedge); rate 0.1250 kg/ha,4.0
same,Herbicidal rating CYPIR,CYPIR (Rice Flatsedge); rate 0.2500 kg/ha,6.0
same,Herbicidal rating CYPSE,CYPSE (Flatsedge); rate 0.0313 kg/ha,0.0
same,Herbicidal rating CYPSE,CYPSE (Flatsedge); rate 0.0625 kg/ha,0.0
same,Herbicidal rating CYPSE,CYPSE (Flatsedge); rate 0.1250 kg/ha,0.0
same,Herbicidal rating CYPSE,CYPSE (Flatsedge); rate 0.2500 kg/ha,0.0
